The CheMixHub drug solubility set

Experiment: xn = mol fraction of the nth substance listed, in the solute-free solvent

NC(=O)NC1NC(=O)NC1=O (configuration not stated) + O + CCO
solubility (g/100 g solution)
Conditions	288.15 K	293.15 K	298.15 K	303.15 K	308.15 K	313.15 K	318.15 K	323.15 K	328.15 K	333.15 K
x2 = 0.264	0.0433	0.0548	0.0707	0.0891	0.116	0.137	0.163	0.189	0.225	0.262
x2 = 0.447	0.0924	0.108	0.137	0.174	0.216	0.263	0.298	0.355	0.417	0.46
x2 = 0.683	0.159	0.202	0.268	0.332	0.409	0.535	0.646	0.76	0.923	1.09
x2 = 0.829	0.239	0.306	0.394	0.487	0.63	0.785	1.02	1.21	1.48	1.74
x2 = 0.928	0.264	0.353	0.5	0.619	0.787	0.968	1.3	1.58	1.97	2.33

CC(S)C(=O)NCC(=O)O (configuration not stated) + CCCCO + Cc1ccccc1
solubility (g/100 g solution)
Conditions	273.15 K	278.15 K	283.15 K	288.15 K	293.15 K	298.15 K	303.15 K	308.15 K	313.15 K	318.15 K
x2 = 0.2371	0.947	1.12	1.28	1.47	1.67	1.87	2.08	2.33	2.6	2.92
x2 = 0.4531	2.23	2.53	2.88	3.29	3.76	4.25	4.73	5.25	5.84	6.48
x2 = 0.6509	2.84	3.41	4.01	4.7	5.45	6.25	7.12	7.99	8.88	10
x2 = 0.8325	3.57	4.44	5.37	6.33	7.31	8.43	9.63	11	12.3	13.9

O=C(NC(C(=O)O)c1ccccc1)OCc1ccccc1 (configuration not stated) + CCO + O
solubility (g/100 g solution)
Conditions	x2 = 0.1	x2 = 0.2	x2 = 0.3	x2 = 0.4	x2 = 0.5	x2 = 0.6	x2 = 0.7	x2 = 0.8	x2 = 0.9
283.15 K	0.0534	0.628	1.49	2.83	4.36	6.29	8.19	11.1	11.8
293.15 K	0.0958	0.786	2.21	4.37	6.76	9.75	13.4	17.7	18.1
303.15 K	0.153	1.18	3.44	7.93	12.3	17.6	21.9	26.9	27.3
313.15 K	0.239	1.91	6.85	13.9	22.6	29.6	35.5	39.3	40.2
323.15 K	0.396	3.17	12.7	24	37.5	45.5	49.1	51.8	52.6

Cl.NC(Cc1ccccc1)C(=O)OCc1ccccc1 (configuration not stated) + CO + CC(C)=O
solubility (g/100 g solution)
Conditions	x2 = 0.1	x2 = 0.2	x2 = 0.3	x2 = 0.4	x2 = 0.5	x2 = 0.6	x2 = 0.7	x2 = 0.8	x2 = 0.9
283.15 K	0.104	0.31	1.34	2.29	3.85	5.52	7.5	9.27	11.1
293.15 K	0.238	0.665	1.52	2.75	4.55	6.53	8.94	11	13.1
303.15 K	0.306	0.778	1.83	3.37	5.58	7.97	10.7	13.6	15.5
313.15 K	0.482	0.999	2.35	4.15	6.96	9.8	13.2	15.8	18.4
323.15 K	0.588	1.3	2.96	5.13	8.44	12.1	15.8	19.4	21.6

Cl.N=C(N)NC(=N)N1CCOCC1 + O + CC(C)O
solubility (g/100 g solution)
Conditions	x2 = 0.1	x2 = 0.2	x2 = 0.3	x2 = 0.4	x2 = 0.5	x2 = 0.6	x2 = 0.7	x2 = 0.8	x2 = 0.9
283.15 K	0.441	0.892	2.04	4.24	8.16	13.2	19.8	25.8	35
293.15 K	0.499	1.2	2.75	5.73	10.6	15.4	23.9	30.8	37.5
303.15 K	0.607	1.51	3.56	7.55	13.8	20.6	29.6	36.8	44.3
313.15 K	0.831	1.73	4.8	9.86	17.4	23.7	34.9	42.9	50.8
323.15 K	1.11	2.09	5.83	12.6	21.2	30	39.1	45.7	55.9

NC(=O)NC1NC(=O)NC1=O (configuration not stated) + OCCO + CO
solubility (g/100 g solution)
Conditions	288.15 K	293.15 K	298.15 K	303.15 K	308.15 K	313.15 K	318.15 K	323.15 K	328.15 K	333.15 K
x2 = 0.154	0.124	0.146	0.174	0.21	0.242	0.287	0.338	0.396	0.461	0.524
x2 = 0.326	0.188	0.22	0.268	0.336	0.395	0.438	0.508	0.566	0.651	0.732
x2 = 0.521	0.305	0.338	0.387	0.447	0.531	0.613	0.66	0.756	0.83	0.938
x2 = 0.744	0.455	0.481	0.55	0.634	0.702	0.78	0.851	1	1.09	1.25

CCOc1ccccc1C(N)=O + CC#N + CCO
323.15 K
Conditions	solubility (g/100 g solution)
x2 = 0.1	17.4
x2 = 0.2	19.8
x2 = 0.3	21.8
x2 = 0.4	23.3
x2 = 0.5	23.9
x2 = 0.6	23.3
x2 = 0.7	21.7
x2 = 0.8	19.3
x2 = 0.9	16.4

CCOC(=O)OC1=C(c2cc(C)ccc2C)C(=O)NC12CCC(OC)CC2 (configuration not stated) + CC(C)=O + O
solubility (g/100 g solution)
Conditions	278.15 K	283.15 K	288.15 K	293.15 K	298.15 K	303.15 K	308.15 K	313.15 K	318.15 K
x2 = 0.2	0.475	0.687	0.839	1.08	1.39	1.78	2.25	2.83	3.61
x2 = 0.4	3.7	4.54	5.58	6.92	8.55	10.5	12.8	15.7	19
x2 = 0.6	7.51	9.16	10.8	13	15.4	18.3	21.6	25.5	29.7
x2 = 0.8	9.34	10.6	12.6	14.8	17.3	20.3	23.7	27.4	31.4

CCOC(=O)OC1=C(c2cc(C)ccc2C)C(=O)NC12CCC(OC)CC2 (configuration not stated) + CCO + O
solubility (g/100 g solution)
Conditions	278.15 K	283.15 K	288.15 K	293.15 K	298.15 K	303.15 K	308.15 K	313.15 K	318.15 K
x2 = 0.2	0.0705	0.151	0.226	0.365	0.51	0.748	1.02	1.33	1.82
x2 = 0.4	1.44	1.85	2.31	2.96	3.91	5.06	6.59	8.52	11.1
x2 = 0.6	2.83	3.59	4.57	5.78	7.18	9.11	11.5	14.3	17.8
x2 = 0.8	3.14	3.95	4.97	6.19	7.77	9.63	12	15	18.7

N#CCNC(=O)c1cnccc1C(F)(F)F + CCOC(C)=O + CCO
solubility (g/100 g solution)
Conditions	283.15 K	288.15 K	293.15 K	298.15 K	303.15 K	308.15 K	313.15 K	318.15 K	323.15 K
x2 = 0.2	4.4	5.22	6.22	7.38	8.72	10.2	12	14	16.2
x2 = 0.4	5.66	6.57	7.58	8.78	10.1	11.6	13.2	15.2	17.2
x2 = 0.6	5.43	6.27	7.24	8.3	9.5	10.8	12.3	13.9	15.6
x2 = 0.8	4.38	5.03	5.77	6.59	7.53	8.56	9.69	10.9	12.3
